Data from patent publication US20230331690A1, “THC DERIVATIVES, ORAL DOSAGE FORMS COMPRISING SAME, USES THEREOF FOR TREATING DISEASES AND DISORDERS AND SYNTHESIS THEREOF” (BAR-ILAN UNIVERSITY, priority 2020, published 2023).
“And” between values parts separate entries of the source, which are not always exact repeats. Equal values may be shown once.

Tests used:
[1] = system: hind paw of mice; assay: Electronic Von-Frey mechanical sensitivity (withdrawal thresholds) after Paclitaxel-induced neuropathic pain; type: in vivo; conditions: for Withdrawal test, test 1 / Withdrawal test, test 4 / Withdrawal test, test 5 / Withdrawal test, test 2 / Withdrawal test, test 3 / Withdrawal test, test 6: per animal; for Withdrawal test, All group average: 8 mice; for Withdrawal test, Average: average per animal; for Withdrawal test, Change from b.l.: group average vs baseline; for Withdrawal test, test 6: additional test
Description: Mechanical sensitivity was evaluated by measuring the changes in tactile sensitivity in the hind paw of mice, using an Electronic Von-Frey apparatus (EVF). Withdrawal thresholds were measured, using the EVF apparatus, first at baseline (time=0) and then following drug, in a few periods after administration, by applying an accurate force on specific areas of the skin and measuring the needed force for the mouse to lift its paw.
Paclitaxel was utilized for the stimulation of a chemotherapy-induced neuropathic pain. Paclitaxel is anti-cancer chemotherapy drug classified as a “plant alkaloid” and an “antimicrotubule agent”.
Mice were divided into three groups of 8 mice each, as follows: • (a) Group no. 1—Morphine as positive control; • (b) Group no. […] 3—synthetic THC derivative 9-Desmethyl THC.
A portion of Paclitaxel was administered to each mouse by i.p. injection, on days 1, 3, 5 and 7 from the beginning of the experiment. At day 8, withdrawal thresholds were measured first at baseline (time=0), thereafter each mouse received a single portion of a drug substance, at 5 mg/Kg body weight concentration, by oral gavage and measurements took place.
The first checking point was 1 hour after administration of each drug. For every mouse, its threshold for the pain perception in which it removes its hind paw after the stabbing of the Von-Frey hair has been checked. Needed force (in gram force units) was measured each time and was recorded for every checking. This test was repeated 5 times for each mouse consecutively.
This procedure was repeated for all the three groups. The next checking point was 3 hours after administration, where the last withdrawal thresholds measurements were performed on the next morning, on day 9, which was 24 hours after administration.
Morphine was utilized as a positive control where group no. 1 mice received morphine (dissolved in a saline solution (0.9%) and injected subcutaneously) as an analgesic agent, prior to the mechanical sensitivity tests.
The tests described in this example are complicated and depend on numerous factors. Accordingly, results above 10.0 gram force (marked with an asterisk) were not included in the evaluation of the experimental data. In cases of exceptional results, an additional test was performed mouse (test 6) in order to assure the exceptional result.

[2] = system: mice; assay: Hot plate assay, withdrawal reflex latency (WRL); type: in vivo; conditions: for Hot plate Time: per animal
[3] = Pharmacokinetics, blood samples (Example 17); conditions: 0.5 h after i.p. injection of THC or THC-d5, label = analyte
Description: The pharmacokinetics of 9-CD3-(8-D2)-THC compared to natural THC was evaluated using both intraperitoneal i.p. injection and an oral gavage administration for each material. The mice were divided into four groups containing 6 mice (24 mice total). For each group of mice, a blood sample was withdrawn at baseline (t=0), and half-hour intervals (t=0.5, 2 and 5 h) after administration of the drug. Three mice, half of each group, were euthanized with CO2 after 5 h and their organs (brain and liver) were collected. From the second half of each group, another blood sample was withdrawn 24 h after administration, and then these animals were euthanized and the brain and liver were collected for analysis.

[4] = Pharmacokinetics, liver samples (Example 17); type: in vivo, mice; conditions: label = analyte
[5] = Persistence over time, blood samples (Example 18); type: in vivo, mice; conditions: label = analyte
Description: (§1) Blood samples from each mouse were collected at each time point for the pharmacokinetics tests. For 6 h after administrating of all tested drugs, and after testing their WRL on the hot plate, half the mice (n=3) of each group were sacrificed, and the liver and brain of each animal were taken for pharmacokinetics tests. From the remaining mice, blood samples were acquired at 12 h after administration for pharmacokinetics tests. At 24 h after drug administration, and after checking the WRL again, second half of each group of mice were sacrificed, and the liver and brain of each animal were taken for pharmacokinetics tests.

[6] = Persistence over time, brain samples postmortem (Example 18); type: in vivo, mice; conditions: 8 mg/kg administered, died at 6 h; number in brackets = mice with a value
Description: as §1
(§2) All the results of the brain and liver samples, which were taken postmortem 6 h or 24 h after administration (n=3) are summarized in Tables 12-13.

[7] = Persistence over time, liver samples postmortem (Example 18); type: in vivo, mice
Description: as §1, §2

[8] = t = 1 h after 5 mg/Kg, * values excluded
[9] = t = 3 h after 5 mg/Kg, * values excluded
[10] = t = 24 h after 5 mg/Kg, * values excluded
[11] = 5 h after oral gavage administration of THC or THC-d5
[12] = 24 h after i.p. injection of THC or THC-d5

## CN1CC[C@]23c4c5ccc(O)c4O[C@H]2[C@@H](O)C=C[C@H]3[C@H]1C5 [Morphine, reference compound]
[1]; t = 1 h after 5 mg/Kg single dose (oral gavage; morphine s.c.), * values >10.0 excluded from evaluation
  Withdrawal test, test 1: 4.4 gram force (2×) and 8.5 gram force and 8.4 gram force and 5.2 gram force and 5.9 gram force and 4.7 gram force and 5.6 gram force
[1]; t = 1 h after 5 mg/Kg
  Withdrawal test, All group average: 6.21 gram force
  Withdrawal test, Average: 5.68 gram force (2×) and 7.80 gram force and 7.17 gram force and 6.62 gram force and 6.02 gram force and 5.26 gram force and 5.45 gram force
  Withdrawal test, Change from b.l.: +6.7%
  Withdrawal test, test 4: 9.1 gram force and 8.3 gram force and 7.4 gram force and 6.5 gram force and 5.0 gram force and 4.2 gram force and 5.3 gram force and 4.4 gram force
  Withdrawal test, test 5: 4.2 gram force and 9.8 gram force and 5.7 gram force and 9.0 gram force and 4.9 gram force and 9.2 gram force and 7.5 gram force and 5.8 gram force
[1]; t = 1 h after 5 mg/Kg, listed as morphine
  Withdrawal test, Change from b.l.: 6.7%
[1]; [8]
  Withdrawal test, test 2: 6.5 gram force and 4.3 gram force and *10.3 gram force and 7.9 gram force and 8.3 gram force and 7.6 gram force and 4.2 gram force and 6.0 gram force
  Withdrawal test, test 3: 4.2 gram force and 8.1 gram force and *10.5 gram force and 4.5 gram force and 4.3 gram force and 4.4 gram force and 4.9 gram force and *10.2 gram force
[1]; t = 3 h after 5 mg/Kg
  Withdrawal test, All group average: 5.79 gram force
  Withdrawal test, Average: 6.28 gram force and 6.00 gram force and 4.68 gram force and 5.50 gram force and 5.66 gram force and 5.12 gram force and 6.34 gram force and 5.34 gram force
  Withdrawal test, Change from b.l.: −0.5%
  Withdrawal test, test 2: 5.5 gram force (2×) and 6.8 gram force and 4.3 gram force and 6.1 gram force and 5.9 gram force and 4.4 gram force and 5.3 gram force
  Withdrawal test, test 4: 5.5 gram force and 4.9 gram force and 4.6 gram force and 4.3 gram force and 7.0 gram force and 5.3 gram force and 6.4 gram force and 5.8 gram force
  Withdrawal test, test 5: 6.9 gram force and 8.6 gram force and 5.5 gram force and 5.6 gram force and 4.6 gram force and 5.2 gram force and 6.1 gram force and 5.7 gram force
  Withdrawal test, test 6: 7.0 gram force and 4.5 gram force
[1]; t = 3 h after 5 mg/Kg, listed as morphine
  Withdrawal test, Change from b.l.: −0.5%
[1]; [9]
  Withdrawal test, test 1: 7.2 gram force and 5.3 gram force (2×) and *11.6 gram force and 6.6 gram force and 5.6 gram force and 6.4 gram force and 5.4 gram force
  Withdrawal test, test 3: 6.3 gram force and 4.4 gram force and 4.3 gram force (2×) and 4.9 gram force and 5.2 gram force and 8.4 gram force and 4.5 gram force
[1]; t = 24 h after 5 mg/Kg
  Withdrawal test, All group average: 5.09 gram force
  Withdrawal test, Average: 5.23 gram force and 4.80 gram force and 5.44 gram force and 5.28 gram force and 4.32 gram force and 6.08 gram force and 4.54 gram force and 5.00 gram force
  Withdrawal test, Change from b.l.: −12.5%
  Withdrawal test, test 1: 5.2 gram force (2×) and 4.0 gram force (2×) and 4.3 gram force and 4.1 gram force and 6.9 gram force and 5.4 gram force
  Withdrawal test, test 2: 4.7 gram force (3×) and 5.2 gram force and 5.3 gram force and 5.8 gram force and 6.0 gram force and 4.0 gram force
  Withdrawal test, test 3: 4.5 gram force and 6.5 gram force and 4.1 gram force (2×) and 4.0 gram force and 4.8 gram force and 5.1 gram force and 4.2 gram force
  Withdrawal test, test 6: 6.5 gram force and 4.3 gram force
[1]; t = 24 h after 5 mg/Kg, listed as morphine
  Withdrawal test, Change from b.l.: −12.5%
[1]; [10]
  Withdrawal test, test 4: *12.9 gram force and 4.0 gram force and 4.1 gram force and 6.7 gram force and 4.7 gram force (2×) and 4.6 gram force and 7.4 gram force
  Withdrawal test, test 5: 6.5 gram force and 4.3 gram force (2×) and 9.4 gram force and 4.6 gram force and 4.1 gram force and 8.0 gram force and 4.0 gram force
[2]; 5 mg/kg oral, t = 0.5 h
  Hot plate Avg. 6 mice: 14.43 s
[2]; 5 mg/kg oral, t = 0.5 h, cut-off 30 s
  Hot plate Time: 15.7 s and 13.1 s and 10.5 s and 23.8 s and 12.4 s and 11.1 s
[2]; 5 mg/kg oral, t = 3 h
  Hot plate Avg. 6 mice: 14.05 s
  Hot plate Time: 16.8 s and 11.4 s and 20.5 s and 12.6 s and 14.5 s and 8.5 s
[2]; 5 mg/kg oral, t = 6 h
  Hot plate Avg. 6 mice: 14.25 s
  Hot plate Time: 12.7 s and 8.0 s and 26.6 s and 19.7 s and 12.0 s and 6.5 s
[2]; 5 mg/kg oral, t = 24 h
  Hot plate Avg. 3 mice: 5.8 s
  Hot plate Time: 2.4 s and 9.0 s and 5.9 s
[2]; 5 mg/kg, 0.5 h
  average increase in WRL compared to baseline (t=0): 26.9%
[2]; 5 mg/kg, 3 h
  change in average WRL compared to t=0 at baseline: +23%
[2]; 5 mg/kg, 6 h
  change in average WRL compared to baseline: +25%
[2]; 5 mg/kg, 24 h, 3 animals
  average WRL less than baseline: about 50%

## CCCCCc1cc(O)c2c(c1)OC(C)(C)[C@@H]1CCC(CO)=C[C@@H]21 [11-OH-THC]
[3]
  Component in the blood, mouse 1: 2.40 ng/mL
  Component in the blood, mouse 2: 2.44 ng/mL
  Component in the blood, mouse 3: 2.10 ng/mL
  Component in the blood, mouse 4: 3.43 ng/mL
  Component in the blood, mouse 5: 2.27 ng/mL
  Component in the blood, mouse 6: 2.37 ng/mL
[3]; n=6 (THC-d5 n=5)
  Component in the blood, Average: 2.50 ng/mL
[4]; [11]
  Component in the liver, mouse 1: 6.56 ng/mL
  Component in the liver, mouse 2: 23.90 ng/mL
  Component in the liver, mouse 3: 2.83 ng/mL
[4]; 5 h after oral gavage administration of THC or THC-d5, n=3
  Component in the liver, Average: 11.10 ng/mL
[4]; [12]
  Component in the liver, mouse 1: 0.37 ng/mL
  Component in the liver, mouse 2: 3.12 ng/mL
  Component in the liver, mouse 3: 1.46 ng/mL
[5]; 4 mg/kg administration of THC or THC-d5, Time 0.5 h
  Average results, blood samples: 1.54 ng/mL
[5]; 4 mg/kg administration, Time 3 h
  Average results, blood samples: 0.18 (2/2) ng/mL
[5]; 8 mg/kg administration of THC or THC-d5, Time 0.5 h
  Average results, blood samples: 1.96 ng/mL
[5]; 8 mg/kg administration, Time 3 h
  Average results, blood samples: 0.44 ng/mL
[6]
  Average results for 3 mice - brain samples: 5.2 (2) ng/g
[7]; 2 mg/kg administered, died at 6 h
  Average results for 3 mice (Table 13, liver): 8.76 ng/g
[7]; 4 mg/kg administered, died at 6 h
  Average results for 3 mice (Table 13, liver): 41.89 ng/g
[7]; 8 mg/kg administered, died at 6 h
  Average results for 3 mice (Table 13, liver): 22.94 ng/g
[7]; 8 mg/kg administered, died at 24 h, number in brackets = mice with a value
  Average results for 3 mice (Table 13, liver): 5.57 (1) ng/g
